{
  "source": "patent US8623830B2",
  "about": "“Compositions containing α-1-antitrypsin and methods for use” (Beth Israel Deaconess Medical Center, Inc., priority 2006, dated 2014)",
  "key": {"[1]": {"test_system": "1-AZT, a misfolded but functionally active mutant of α1-antitrypsin", "conditions": "model cell culture system; cited from earlier work"}, "[2]": {"conditions": "cited from earlier work"}, "[3]": {"test_system": "new onset diabetic NOD mice", "assay": "Treatment of new onset diabetic NOD mice, blood glucose monitoring (normoglycemia)", "format": "in vivo, mouse", "source_text": "Female NOD (NOD/LtJx) mice and NOD.SCID (NOD.CB17-Prkdc^scid/J) were purchased from Jackson Laboratories (Bar Harbor, Me.) at 4 weeks of age and maintained under pathogen-free conditions in a conventional animal facility at Massachusetts General Hospital (Boston, Mass.). All animal studies were approved by our institutional review boards. The blood glucose levels of NOD mice were monitored weekly with the ACCU-CHECK® blood glucose monitor system (Roche, Indianapolis, Ind.). […] For syngeneic islet transplant recipients, blood glucose levels were checked at the time of transplantation, then daily for the first two weeks, and then 2 to 3 times per week afterward.\nARALAST™ (α1-proteinase inhibitor, human) is a major serum serine-protease inhibitor that inhibits the enzymatic activity of neutrophil elastase, cathespin G, proteinase 3, thrombin, trypsin, and chymotrypsin. ARALAST™ was purchased from Baxter (Westlake Village, Calif.) and was given at a dose of 2 mg i.p. every 3 days, for a total of 5 injections."}, "[4]": {"test_system": "insulin receptor substrate-1 (IRS-1)", "assay": "In vivo insulin signaling in skeletal muscle, immunoblotting of IRS-1 phosphorylation", "design": "species or system mouse", "conditions": "skeletal muscle of new onset diabetic NOD mice, FIG. 1", "method": "(§1) FIG. 1 is a pair of bar graphs representing the results obtained from studies of insulin signaling in skeletal muscle. The upper graph charts insulin receptor (IR) phosphorylation and the lower graph charts insulin receptor substrate-1 (IRS-1) phosphorylation in control, diabetic, and treated animals.\n(§2) In vivo insulin signaling experiments were performed on mice after a 16 hour fast. Mice were injected i.p. with 20 U/kg BW of human insulin (Eli Lilly) or saline. Skeletal muscle (gastronemius) was dissected and frozen in liquid nitrogen for immunoblotting analysis of insulin signaling proteins.\n(§3) Skeletal muscle (gastronemius), obtained in the context of our in vivo insulin signaling studies, was homogenized in a modified radioimmunoprecipitation assay (RIPA) buffer containing 50 mM Tris-HCl, 1 mM EDTA, 1% NP-40, 0.25% sodium deoxycholate, 150 mM NaCl, 1 mM PMSF, 200 μM […], supplemented with 1% protease inhibitor cocktail (Sigma), and 1% tyrosine phosphatase inhibitor cocktail (Sigma). Cell homogenates were incubated on ice for 45 minutes to solubilize all proteins, and insoluble portions were removed by centrifugation at 14,000 g at 4° C. for 15 minutes. Whole cell lysates were separated by SDS-polyacrylamide gel electrophoresis (PAGE). […] The blots were quantified using densitometry (Molecular Dynamics, Sunnvale, Calif.)."}, "[5]": {"test_system": "insulin receptor (IR)", "assay": "In vivo insulin signaling in skeletal muscle, immunoblotting of IR phosphorylation", "design": "species or system mouse", "conditions": "skeletal muscle of new onset diabetic NOD mice, FIG. 1", "method": "as §1, §2, §3"}, "[6]": {"conditions": "subcutaneous injection of 25 mg twice a week; average; cited from earlier work"}},
  "data": [
    {"compound": "O=C(O)CCCc1ccccc1", "note": "[PBA, 4-phenylbutyric acid]", "values": [
      {"measurement": "Secretion of 1-AZT", "setting": "[1]", "value": "marked increase"}
    ]},
    {"compound": "AAT: α1-antitrypsin, plasma serine protease inhibitor (serpin)", "values": [
      {"measurement": "Half life in plasma", "setting": "[2]", "value": "approximately six"},
      {"measurement": "Effect of a short course on glycemia", "setting": "[3]", "value": "restores normoglycemia"}
    ]},
    {"compound": "Aralast ™: α1-proteinase inhibitor, human; major serum serine-protease inhibitor, purchased from Baxter", "values": [
      {"measurement": "Days after treatment (how long the animals have been normoglycemic)", "setting": "[3]; animals still alive at writing", "value": "90 to 300", "unit": "days"},
      {"measurement": "Phosphorylation of insulin receptor substrate-1 (IRS-1)", "setting": "[4]", "value": "restored"},
      {"measurement": "Tyrosyl-phosphorylation of insulin receptor (IR)", "setting": "[5]", "value": "restored"}
    ]},
    {"compound": "Etanercept", "values": [
      {"measurement": "Time to peak blood levels", "setting": "[6]", "value": 72, "unit": "h"}
    ]}
  ]
}
